In patent US6815556B2, “Compounds having fungicidal activity and processes to make and use same” (Dow AgroSciences LLC, priority 2000, dated 2004):
Read-outs that look alike come from different tables or passages of the source.

How the values were obtained:
Phytophthora infestans = assay: whole plant or invertebrate; assay type: in vivo; conditions: 24 h, read-out: PHYTIN percent control
Plasmopara viticola = assay: whole plant or invertebrate; assay type: in vivo; conditions: 24 h, read-out: PLASVI percent control
Septoria tritici = assay: Leaf Blotch of Wheat, 1-day protectant whole plant test; assay type: in vivo; conditions: Zymoseptoria tritici, 24 h, read-out: SEPTTR percent control
[1] = 100 ppm spray, wheat plants (variety Monon), one-day protectant test, vs untreated inoculated plants

Structure (SMILES)	pest or weed control at 100 ppm (Phytophthora infestans) [%]	pest or weed control at 100 ppm (Plasmopara viticola) [%]	melting point [°C]	pest or weed control at 100 ppm (Septoria tritici) [%]	pest or weed control at 100 ppm (Septoria tritici; [1]) [%]
CC(C)[C@@H](CS(=O)(=O)C(C)c1ccc(C#N)cc1)NC(=O)Oc1ccccc1Br (some centres unmarked) [Compound 34]	90 to 100	90 to 100	–	–	–
Cc1ccc(OC(=O)N[C@H](CS(=O)(=O)C(C)c2ccc(C#N)cc2)C(C)C)cc1 (some centres unmarked) [Compound 29]	90 to 100	90 to 100	65 to 74	50 to 89	–
COc1cccc(OC(=O)N[C@H](CS(=O)(=O)C(C)c2ccc(C#N)cc2)C(C)C)c1 (some centres unmarked) [Compound 43]	50 to 89	90 to 100	50 to 53	–	–
CC(C)OC(=O)N[C@H](CS(=O)(=O)C(C)c1ccc(-c2ccccc2)cc1)C(C)C (some centres unmarked) [Compound 6]	90 to 100	90 to 100	–	–	–
C#Cc1ccc(C(C)S(=O)(=O)C[C@@H](NC(=O)OC(C)C)C(C)C)cc1 (some centres unmarked) [Compound 11]	90 to 100	50 to 89	125 to 135	–	50 to 89
CC[C@@H](CS(=O)(=O)C(C)c1ccc(C#N)cc1)NC(=O)Oc1ccc(F)cc1 (some centres unmarked) [Compound 42]	90 to 100	90 to 100	50 to 62	–	–
CC(C)OC(=O)N[C@H](CS(=O)(=O)C(C)c1ccc(C=O)cc1)C(C)C (some centres unmarked) [Compound 15]	90 to 100	90 to 100	50 to 60	–	–
CC(C)OC(=O)N[C@H](CS(=O)(=O)C(C)c1ccc2ccccc2c1)C(C)C (some centres unmarked) [Compound 16]	90 to 100	50 to 89	–	–	–
CC(C)OC(=O)N[C@H](CS(=O)(=O)C(C)c1cccc(F)c1)C(C)C (some centres unmarked) [Compound 3]	90 to 100	50 to 89	–	–	–
CON=Cc1ccc(C(C)S(=O)(=O)C[C@@H](NC(=O)OC(C)C)C(C)C)cc1 (some centres unmarked) [Compound 12]	90 to 100	90 to 100	–	–	–
CC(C)OC(=O)N[C@H](CS(=O)(=O)C(C)c1ccc(OC(F)(F)F)cc1)C(C)C (some centres unmarked) [Compound 4]	90 to 100	90 to 100	50 to 60	–	< 20
CC(C)OC(=O)N[C@H](CS(=O)(=O)C(C)c1ccc(C#N)s1)C(C)C (some centres unmarked) [Compound 9]	90 to 100	90 to 100	–	–	–
CCSC(=O)N[C@H](CS(=O)(=O)C(C)c1ccc(C#N)cc1)C(C)C (some centres unmarked) [Compound 36]	50 to 89	50 to 89	–	–	–
CC(C)OC(=O)N[C@@H](C(C)C)C(C)S(=O)(=O)C(C)c1ccc(Br)cc1 (some centres unmarked) [Compound 44]	90 to 100	50 to 89	–	–	–
CC(C)OC(=O)N[C@H](CS(=O)(=O)C(C)c1ccc(Br)c([N+](=O)[O-])c1)C(C)C (some centres unmarked) [Compound 24]	90 to 100	90 to 100	–	–	–
COC(C)[C@@H](CS(=O)(=O)C(C)c1ccc(C#N)cc1)NC(=O)Oc1ccc(C)cc1 (some centres unmarked) [Compound 40]	90 to 100	90 to 100	–	–	–
COC(=O)c1ccc(C(C)S(=O)(=O)C[C@@H](NC(=O)OC(C)C)C(C)C)cc1 (some centres unmarked) [Compound 14]	90 to 100	90 to 100	140 to 145	–	–
CC(C)[C@@H](CS(=O)(=O)C(C)c1ccc(C#N)cc1)NC(=O)Oc1ccc(F)cc1 (some centres unmarked) [Compound 18]	90 to 100	90 to 100	–	50 to 89	–
CC(c1ccc(C#N)cc1)S(=O)(=O)C[C@H](CC1CCCCC1)NC(=O)OC(C)(C)C (some centres unmarked) [Compound 41]	50 to 89	90 to 100	58 to 65	–	–
CC[C@@H](CS(=O)(=O)C(C)c1ccc(C#N)cc1)NC(=O)Oc1ccc(C)cc1 (some centres unmarked) [Compound 38]	90 to 100	90 to 100	50 to 60	–	–
CCOc1ccc(OC(=O)N[C@H](CS(=O)(=O)C(C)c2ccc(Br)cc2)C(C)C)cn1 (some centres unmarked) [Compound 32]	90 to 100	90 to 100	–	–	–
CCC(c1ccc(Cl)cc1)S(=O)(=O)C[C@@H](NC(=O)OC(C)C)C(C)C (some centres unmarked) [Compound 23]	50 to 89	50 to 89	–	–	50 to 89

Structure (SMILES)	pest or weed control at 100 ppm (Phytophthora infestans) [%]	pest or weed control at 100 ppm (Plasmopara viticola) [%]	melting point [°C]	pest or weed control at 100 ppm (Septoria tritici) [%]	pest or weed control at 100 ppm (Septoria tritici; [1]) [%]
CC(C)[C@@H](CS(=O)(=O)C(C)c1ccc(Br)cc1)NC(=O)OC(C)(C)C (some centres unmarked) [Compound 20]	90 to 100	50 to 89	–	–	20 to 49
CC(C)OC(=O)N[C@H](CS(=O)(=O)C(C)c1nc2ccc(Br)cc2s1)C(C)C (some centres unmarked) [Compound 10]	90 to 100	90 to 100	–	–	–
CC(C)OC(=O)N[C@H](CS(=O)(=O)C(C)c1ccc(Cl)c(Cl)c1)C(C)C (some centres unmarked) [Compound 5]	90 to 100	50 to 89	75 to 85	–	< 20
C=CCC(c1ccc(C#N)cc1)S(=O)(=O)C[C@@H](NC(=O)Oc1ccc(C)cc1)C(C)C (some centres unmarked) [Compound 26]	90 to 100	90 to 100	–	–	–
CC(C)[C@@H](CS(=O)(=O)C(C)c1ccc(Br)cc1)NC(=O)Oc1ccccc1 (some centres unmarked) [Compound 17]	90 to 100	90 to 100	55 to 65	20 to 49	–
CC(C)[C@@H](CS(=O)(=O)C(C)c1ccc(C#N)cc1)NC(=O)OCC(Cl)(Cl)Cl (some centres unmarked) [Compound 27]	90 to 100	90 to 100	–	–	50 to 89
CC(C)[C@@H](CS(=O)(=O)C(C)c1ccc(Br)cc1)NC(=O)Oc1ccc2ccccc2c1 (some centres unmarked) [Compound 31]	90 to 100	90 to 100	129 to 135	–	–
CC(C)OC(=O)N[C@H](CS(=O)(=O)C(C)c1ccc([N+](=O)[O-])cc1)C(C)C (some centres unmarked) [Compound 13]	90 to 100	90 to 100	–	–	< 20
C=C(C)OC(=O)N[C@H](CS(=O)(=O)C(C)c1ccc(C#N)cc1)C(C)C (some centres unmarked) [Compound 28]	90 to 100	90 to 100	–	–	–
CC(C)[C@@H](CS(=O)(=O)C(C)c1ccc(C#N)cc1)NC(=O)Nc1ccc(C(F)(F)F)cc1 (some centres unmarked) [Compound 37]	90 to 100	90 to 100	–	–	–
CC(C)OC(=O)N[C@H](CS(=O)(=O)C(C)c1ccc(Br)cc1)C(C)C (some centres unmarked) [Compound 1]	90 to 100	90 to 100	60 to 70	–	< 20
CC(C)[C@@H](CS(=O)(=O)C(C)c1ccc(C#N)cc1)NC(=O)Oc1ccc(Br)cc1 (some centres unmarked) [Compound 30]	90 to 100	90 to 100	–	–	–
CCC(C)[C@@H](CS(=O)(=O)C(C)c1ccc(Br)cc1)NC(=O)OC(C)C (some centres unmarked) [Compound 39]	90 to 100	90 to 100	–	–	–
CC(C)OC(=O)N[C@H](CS(=O)(=O)C(C)c1ccc(C#N)cc1)C(C)C (some centres unmarked) [Compound 2]	90 to 100	90 to 100	110 to 120	–	< 20
Cc1cccc(OC(=O)N[C@H](CS(=O)(=O)C(C)c2ccc(C#N)cc2)C(C)C)c1 (some centres unmarked) [Compound 19]	90 to 100	90 to 100	–	–	–
CC(C)OC(=O)N[C@H](CS(=O)(=O)C(C)c1ccc(Br)nc1)C(C)C (some centres unmarked) [Compound 8]	50 to 89	50 to 89	–	–	< 20
CC(C)OC(=S)N[C@H](CS(=O)(=O)C(C)c1ccc(C#N)cc1)C(C)C (some centres unmarked) [Compound 35]	90 to 100	90 to 100	–	–	–
CC(C)OC(=O)N[C@H](CS(=O)(=O)C(Cl)c1ccc(Cl)cc1)C(C)C (some centres unmarked) [Compound 22, isopropyl 1-({[chloro(4-chlorophenyl)methyl]sulfonyl}methyl)-2-methylpropylcarbamate]	90 to 100	90 to 100	140 to 143	–	< 20
C#CCCOC(=O)N[C@H](CS(=O)(=O)C(C)c1ccc(Br)cc1)C(C)C (some centres unmarked) [Compound 21]	90 to 100	50 to 89	–	–	50 to 89
CC(C)OC(=O)N[C@H](CS(=O)(=O)C(C)c1cc2ccc(F)cc2o1)C(C)C (some centres unmarked) [Compound 25]	90 to 100	90 to 100	–	–	–
Cc1ccc(OC(=O)N[C@H](CS(=O)(=O)C(C)c2ccc(C#N)cc2)C(C)C)cc1C (some centres unmarked) [Compound 33]	90 to 100	90 to 100	–	–	–
